Results on 18 molecules are retold here after US20260232658A1, “AZETIDINYL BENZOXAZOLE COMPOUNDS AND THEIR USE AS MER AND AXL INHIBITORS” (DONG-A ST CO., LTD., priority 2022, published 2026).

Some results are limits rather than exact numbers.

One test has as its target T1, human MER (528-end) (Homo sapiens, UniProt Q12866).
T1 construct: human MER (528-end); purchased Carnabio, Japan
T1 sequence (Q12866 528-999 limits assumed): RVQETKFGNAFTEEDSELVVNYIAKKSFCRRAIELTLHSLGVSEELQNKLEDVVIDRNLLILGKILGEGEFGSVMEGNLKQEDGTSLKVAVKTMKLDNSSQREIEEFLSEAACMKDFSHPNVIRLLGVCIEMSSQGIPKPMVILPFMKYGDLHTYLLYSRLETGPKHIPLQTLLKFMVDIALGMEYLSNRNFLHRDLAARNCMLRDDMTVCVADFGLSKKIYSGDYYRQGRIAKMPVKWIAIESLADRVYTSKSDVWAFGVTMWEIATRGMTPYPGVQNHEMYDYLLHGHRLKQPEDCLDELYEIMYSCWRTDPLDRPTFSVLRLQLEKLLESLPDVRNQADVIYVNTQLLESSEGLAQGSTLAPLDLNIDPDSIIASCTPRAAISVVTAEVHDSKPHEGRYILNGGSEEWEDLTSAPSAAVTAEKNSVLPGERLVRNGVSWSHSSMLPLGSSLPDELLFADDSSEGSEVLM
Nature of the test: HTRF kinase activity biochemical assay, MER.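 Note: phosphorylation of a biotin-tagged tyrosine kinase substrate detected by Eu3+-cryptate antibody and streptavidin-XL665 time-resolved fluorescence, read after 1 h at room temperature.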 As to conditions: recombinant kinase, 10 uM ATP, 30 minutes pre-incubation; read-out: HTRF MERTK IC50. For orientation: In TR-FRET formats the signal depends on donor and acceptor labels being close together.

The next test deals with T2, TYRO3 (455-end) (Homo sapiens, UniProt Q06418).
T2 construct: TYRO3 (455-end); purchased SignalChem, Canada
T2 sequence (Q06418 455-890 limits assumed): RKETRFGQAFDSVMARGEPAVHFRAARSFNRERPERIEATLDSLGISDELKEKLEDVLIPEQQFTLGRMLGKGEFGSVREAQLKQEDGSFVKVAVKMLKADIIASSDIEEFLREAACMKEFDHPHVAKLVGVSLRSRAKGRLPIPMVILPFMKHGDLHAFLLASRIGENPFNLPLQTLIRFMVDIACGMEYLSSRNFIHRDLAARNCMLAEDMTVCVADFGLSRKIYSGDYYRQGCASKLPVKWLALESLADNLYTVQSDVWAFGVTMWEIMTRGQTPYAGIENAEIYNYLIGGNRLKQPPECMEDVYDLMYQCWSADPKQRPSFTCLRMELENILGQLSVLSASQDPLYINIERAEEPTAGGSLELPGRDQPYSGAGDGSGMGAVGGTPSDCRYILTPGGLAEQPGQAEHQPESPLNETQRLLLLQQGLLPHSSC
Briefly: HTRF kinase activity biochemical assay, TYRO3.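 Note: biotinylated tyrosine kinase substrate phosphorylation detected via streptavidin-XL665 and Eu3+-cryptate anti-phospho antibody time-resolved fluorescence, read after 1 h detection at room temperature, 384-well format.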 Particulars: recombinant kinase, 10 uM ATP, 30 minutes pre-incubation; read-out: HTRF TYRO IC50.

The target of another test is T3, human AXL (473-end) (Homo sapiens, UniProt P30530).
T3 construct: human AXL (473-end); purchased SignalChem, Canada
T3 sequence (P30530 473-894 limits assumed): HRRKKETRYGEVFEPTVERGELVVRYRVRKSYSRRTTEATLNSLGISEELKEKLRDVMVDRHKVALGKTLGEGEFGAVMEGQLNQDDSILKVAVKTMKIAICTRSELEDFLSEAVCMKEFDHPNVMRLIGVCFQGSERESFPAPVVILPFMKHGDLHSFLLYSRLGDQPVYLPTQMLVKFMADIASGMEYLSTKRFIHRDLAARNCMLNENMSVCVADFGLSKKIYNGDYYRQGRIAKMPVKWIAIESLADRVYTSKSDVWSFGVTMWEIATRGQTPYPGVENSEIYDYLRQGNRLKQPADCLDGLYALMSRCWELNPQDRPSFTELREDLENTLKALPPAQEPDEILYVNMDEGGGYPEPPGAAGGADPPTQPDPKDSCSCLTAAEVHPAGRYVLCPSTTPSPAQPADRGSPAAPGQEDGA
Briefly: HTRF kinase activity biochemical assay, AXL.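 Note: phosphorylation of a biotinylated tyrosine kinase substrate detected via Eu3+-cryptate anti-TK antibody and streptavidin-XL665, fluorescence read after a 1 h incubation at room temperature.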 As to conditions: recombinant kinase, 10 uM ATP, 30 minutes pre-incubation; read-out: HTRF AXL IC50.

One may read the IC50 as the point on the concentration scale where inhibition reaches its midpoint. As to `CN1CCCC(Oc2ccc3nc(N4CC(c5cnc(Nc6cnn(C)c6)c(C(N)=O)n5)C4)oc3c2)C1=O` (stereo not drawn) [Example 76, 6-(1-{6-[(1-methyl-2-oxopiperidin-3-yl)oxy]-1,3-benzoxazol-2-yl}azetidin-3-yl)-3-[(1-methyl-1H-pyrazol-4-yl)amino]pyrazine-2-carboxamide], the IC50 is less than 1 nM at human MER (528-end), 240 nM on TYRO3 (455-end) and 2 nM on human AXL (473-end).

With `Cn1cc(Nc2ncc(C3CN(c4nc5ccc(OC6CCCC6O)cc5o4)C3)nc2C(N)=O)cn1` (stereo not drawn) [Example 79, 6-(1-{6-[(2-hydroxycyclopentyl)oxy]-1,3-benzoxazol-2-yl}azetidin-3-yl)-3-[(1-methyl-1H-pyrazol-4-yl)amino]pyrazine-2-carboxamide], the figures for the IC50 on human MER (528-end), at TYRO3 (455-end) and at human AXL (473-end) were less than 1 nM, 66 nM and 2 nM, respectively.

For the molecule `Cn1cc(Nc2ncc(C3CN(c4nc5ccc(CO)cc5o4)C3)nc2C(N)=O)cn1` [Example 16, 6-{1-[6-(hydroxymethyl)-1,3-benzoxazol-2-yl]azetidin-3-yl}-3-[(1-methyl-1H-pyrazol-4-yl)amino]pyrazine-2-carboxamide], the results for the half-inhibitory concentration (IC50) on human MER (528-end), on TYRO3 (455-end) and on human AXL (473-end) were 7 nM, 860 nM and 30 nM, respectively.

As for `Cn1cc(Nc2ncc(C3CN(c4nc5ccc(-c6cnn(CCO)c6)cc5o4)C3)nc2C(N)=O)cn1` [Example 90, 6-(1-{6-[1-(2-hydroxyethyl)-1H-pyrazol-4-yl]-1,3-benzoxazol-2-yl}azetidin-3-yl)-3-[(1-methyl-1H-pyrazol-4-yl)amino]pyrazine-2-carboxamide], the concentration for half-maximal inhibition (IC50) at human MER (528-end) is 2 nM; on TYRO3 (455-end) it was 880 nM; on human AXL (473-end), 4 nM.

`CN(C)C(=O)COc1ccc2nc(N3CC(c4ccc(Nc5cnn(C)c5)c(C(N)=O)n4)C3)oc2c1` [Example 83, 6-(1-{6-[2-(dimethylamino)-2-oxoethoxy]-1,3-benzoxazol-2-yl}azetidin-3-yl)-3-[(1-methyl-1H-pyrazol-4-yl)amino]pyridine-2-carboxamide]: the IC50 at human MER (528-end) was found to be 4 nM; on TYRO3 (455-end) it was 6800 nM; at human AXL (473-end) it was 26 nM.

Take `Cn1cnc(-c2ccc3nc(N4CC(c5cnc(Nc6cnn(C)c6)c(C(N)=O)n5)C4)oc3c2)c1` [Example 105, 6-{1-[6-(1-methyl-1H-imidazol-4-yl)-1,3-benzoxazol-2-yl]azetidin-3-yl}-3-[(1-methyl-1H-pyrazol-4-yl)amino]pyrazine-2-carboxamide]: the concentration for half-maximal inhibition (IC50) at human MER (528-end) is less than 1 nM; at TYRO3 (455-end), 53 nM; at human AXL (473-end) it was 5 nM.

Turning to `Cn1cc(Nc2ncc(C3CN(c4nc5ccc(OCCO)cc5o4)C3)nc2C(N)=O)cn1` [Example 40, 6-{1-[6-(2-hydroxyethoxy)-1,3-benzoxazol-2-yl]azetidin-3-yl}-3-[(1-methyl-1H-pyrazol-4-yl)amino]pyrazine-2-carboxamide], the 50% inhibitory concentration (IC50) stood at 2 nM at human MER (528-end), 460 nM on TYRO3 (455-end) and 8 nM on human AXL (473-end).

`Cn1cc(Nc2ccc(C3CN(c4nc5ccc(Oc6cccnn6)cc5o4)C3)nc2C(N)=O)cn1` [Example 103, 3-[(1-methyl-1H-pyrazol-4-yl)amino]-6-(1-{6-[(pyridazin-3-yl)oxy]-1,3-benzoxazol-2-yl}azetidin-3-yl)pyridine-2-carboxamide]: the IC50 at human MER (528-end) is less than 1 nM; at TYRO3 (455-end), 710 nM; at human AXL (473-end), 3 nM.

In the case of `COC/C=C/c1ccc2nc(N3CC(c4cnc(Nc5cnn(C)c5)c(C(N)=O)n4)C3)oc2c1` [Example 22, 6-(1-{6-[(1E)-3-methoxyprop-1-en-1-yl]-1,3-benzoxazol-2-yl}azetidin-3-yl)-3-[(1-methyl-1H-pyrazol-4-yl)amino]pyrazine-2-carboxamide], the IC50 was less than 1 nM on human MER (528-end), 90 nM at TYRO3 (455-end) and less than 1 nM on human AXL (473-end).

For `CC(C)(O)CCOc1ccc2nc(N3CC(c4cnc(Nc5cnn(CC(C)(C)O)c5)c(C(N)=O)n4)C3)oc2c1` [Example 96, 6-{1-[6-(3-hydroxy-3-methylbutoxy)-1,3-benzoxazol-2-yl]azetidin-3-yl}-3-{[1-(2-hydroxy-2-methylpropyl)-1H-pyrazol-4-yl]amino}pyrazine-2-carboxamide], the results for the IC50 at human MER (528-end), on TYRO3 (455-end) and on human AXL (473-end) were 3 nM, 1610 nM and 12 nM, respectively.

Turning to `Cn1cc(Nc2ncc(C3CN(c4nc5ccc(C(=O)N6CCC[C@@H]6CO)cc5o4)C3)nc2C(N)=O)cn1` [Example 59, 6-(1-{6-[(2R)-2-(hydroxymethyl)pyrrolidine-1-carbonyl]-1,3-benzoxazol-2-yl}azetidin-3-yl)-3-[(1-methyl-1H-pyrazol-4-yl)amino]pyrazine-2-carboxamide], the values for the IC50 at human MER (528-end), at TYRO3 (455-end) and at human AXL (473-end) were less than 1 nM, 30 nM and 2 nM, respectively.

Regarding `Cn1cc(Nc2ncc(C3CN(c4nc5ccc(OCC6CC(O)C6)cc5o4)C3)nc2C(N)=O)cn1` (stereo not drawn) [Example 42, 6-(1-{6-[(3-hydroxycyclobutyl)methoxy]-1,3-benzoxazol-2-yl}azetidin-3-yl)-3-[(1-methyl-1H-pyrazol-4-yl)amino]pyrazine-2-carboxamide], the IC50 is less than 1 nM on human MER (528-end), 64 nM at TYRO3 (455-end) and 2 nM at human AXL (473-end).

For `Cn1cc(Nc2ncc(C3CN(c4nc5ccc(O[C@H]6CCOC6)cc5o4)C3)nc2C(N)=O)cn1` [Example 69, 3-[(1-methyl-1H-pyrazol-4-yl)amino]-6-[1-(6-{[(3S)-oxolan-3-yl]oxy}-1,3-benzoxazol-2-yl)azetidin-3-yl]pyrazine-2-carboxamide], the IC50 at human MER (528-end) stood at 2 nM; at TYRO3 (455-end), 570 nM; at human AXL (473-end), 8 nM.

Regarding `COCCn1cc(-c2ccc3nc(N4CC(c5cnc(Nc6cnn(C)c6)c(C(N)=O)n5)C4)oc3c2)cn1` [Example 91, 6-(1-{6-[1-(2-methoxyethyl)-1H-pyrazol-4-yl]-1,3-benzoxazol-2-yl}azetidin-3-yl)-3-[(1-methyl-1H-pyrazol-4-yl)amino]pyrazine-2-carboxamide], the IC50 was found to be 2 nM on human MER (528-end), 1430 nM on TYRO3 (455-end) and 4 nM on human AXL (473-end).

`Cn1cc(Nc2ncc(C3CN(c4nc5ccc(OCC(O)CO)cc5o4)C3)nc2C(N)=O)cn1` (stereo not drawn) [Example 43, 6-{1-[6-(2,3-dihydroxypropoxy)-1,3-benzoxazol-2-yl]azetidin-3-yl}-3-[(1-methyl-1H-pyrazol-4-yl)amino]pyrazine-2-carboxamide]: the IC50 on human MER (528-end) was 9 nM; at TYRO3 (455-end), 2140 nM; at human AXL (473-end), 25 nM.

Consider `CN(C)C(=O)Cn1cc(Nc2ncc(C3CN(c4nc5ccccc5o4)C3)nc2C(N)=O)cn1` [Example 34, 6-[1-(1,3-benzoxazol-2-yl)azetidin-3-yl]-3-({1-[2-(dimethylamino)-2-oxoethyl]-1H-pyrazol-4-yl}amino)pyrazine-2-carboxamide], for which the IC50 on human MER (528-end) amounted to 8 nM; on TYRO3 (455-end) it was 620 nM; at human AXL (473-end), 19 nM.

For `CNC(=O)Cc1ccc2nc(N3CC(c4cnc(Nc5cnn(C)c5)c(C(N)=O)n4)C3)oc2c1` [Example 50, 6-(1-{6-[2-(methylamino)-2-oxoethyl]-1,3-benzoxazol-2-yl}azetidin-3-yl)-3-[(1-methyl-1H-pyrazol-4-yl)amino]pyrazine-2-carboxamide], the IC50 at human MER (528-end) was 9 nM; on TYRO3 (455-end) it was 3550 nM; at human AXL (473-end), 16 nM.

For `Cn1cc(Nc2ncc(C3CN(c4nc5ccc(OCC6(O)COC6)cc5o4)C3)nc2C(N)=O)cn1` [Example 57, 6-(1-{6-[(3-hydroxyoxetan-3-yl)methoxy]-1,3-benzoxazol-2-yl}azetidin-3-yl)-3-[(1-methyl-1H-pyrazol-4-yl)amino]pyrazine-2-carboxamide], the IC50 at human MER (528-end) came out at 7 nM; at TYRO3 (455-end) it was 2310 nM; on human AXL (473-end) it was 8 nM.
